Values after ≈ are worked out from the molar mass of the structure shown. Read-outs that look alike come from different tables or passages of the source.
Experiments:
Assay in all cases: In vitro antibacterial activity, broth microdilution MIC90
Assay type in all cases: cell-based
Enterococcus faecalis = conditions: strain 5, E. faecalis
Outline: (§1)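 MIC90 read out by broth microdilution following CLSI standards. Test material ranged from 0.063 to 128 μg/mL final, DMSO at 2.5% (V/V).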

Enterococcus faecium = conditions: strain 8, E. faecium
Outline: as §1

[1] = test system: Linezolid and Vancomycin Resistant Enterococcus faecalis; conditions: strain 7, E. faecalis VanA LR
Outline: as §1

[2] = test system: Linezolid and Vancomycin Resistant Enterococcus faecium (strain 10); conditions: strain 10, E. faecium VanA LR
Outline: as §1

[3] = test system: Linezolid and Vancomycin Resistant Enterococcus faecium (strain 11); conditions: strain 11, E. faecium VanA LR
Outline: as §1

[4] = test system: Methicillin Resistant Staphylococcus aureus; conditions: strain 2, S. aureus MR
Outline: as §1

[5] = test system: Methicillin Resistant Staphylococcus epidermidis; conditions: strain 4, S. epidermidis MR
Outline: as §1

Moraxella catarrhalis = conditions: strain 12, M. catarrhalis
Outline: as §1

Staphylococcus aureus = conditions: strain 1, S. aureus
Outline: as §1

[6] = test system: Staphylococcus epidermidis; conditions: strain 3, S. epidermidis
Outline: as §1

[7] = test system: Vancomycin Resistant Enterococcus faecalis; conditions: strain 6, E. faecalis VanA
Outline: as §1

[8] = test system: Vancomycin Resistant Enterococcus faecium; conditions: strain 9, E. faecium VanA
Outline: as §1

[9] = Enterococcus faecalis, read-out: MIC90
[10] = Enterococcus faecium, read-out: MIC90
[11] = Staphylococcus aureus, read-out: MIC90
[12] = Staphylococcus epidermidis, read-out: MIC90
[13] = Moraxella catarrhalis, read-out: MIC90

SMILES | MIC90 (Enterococcus faecalis) | MIC90 (Enterococcus faecium) | MIC90 [1] | MIC90 [2] | MIC90 [3] | MIC90 [4] | MIC90 [5] | MIC90 (Moraxella catarrhalis) | MIC90 (Enterococcus faecalis; [9]) | MIC90 (Enterococcus faecium; [10]) | MIC90 [1, 9] | MIC90 [2, 10] | MIC90 [3, 10] | MIC90 [4, 11] | MIC90 [5, 12] | MIC90 (Moraxella catarrhalis; [13]) | MIC90 (Staphylococcus aureus; [11]) | MIC90 [6, 12] | MIC90 [7, 9] | MIC90 [8, 10] | further results
O=C1O[C@@H](CNc2ccon2)CN1c1ccc(-c2ccc(C3=NOCCN3)nc2)c(F)c1 [Compound 67] | 0.5 µg/mL (≈ 1.14 µM) | 0.25 µg/mL (≈ 0.57 µM) | 2 µg/mL (≈ 4.56 µM) | 2 µg/mL (≈ 4.56 µM) | 2 µg/mL (≈ 4.56 µM) | 0.5 µg/mL (≈ 1.14 µM) | 0.5 µg/mL (≈ 1.14 µM) | 1 µg/mL (≈ 2.28 µM) | – | – | – | – | – | – | – | – | – | – | – | – | MIC90 (Staphylococcus aureus): 0.25 µg/mL (≈ 0.57 µM); MIC90 [6]: 0.25 µg/mL (≈ 0.57 µM); MIC90 [7]: 0.5 µg/mL (≈ 1.14 µM); MIC90 [8]: 0.5 µg/mL (≈ 1.14 µM)
O=C1O[C@@H](COc2ccon2)CN1c1ccc(-c2ccc(C3=NOCCN3)nc2)c(F)c1 [Compound 68] | 1 µg/mL (≈ 2.28 µM) | 0.25 µg/mL (≈ 0.569 µM) | >128 µg/mL | >128 µg/mL | >128 µg/mL | 1 µg/mL (≈ 2.28 µM) | 2 µg/mL (≈ 4.55 µM) | >128 µg/mL | – | – | – | – | – | – | – | – | – | – | – | – | MIC90 (Staphylococcus aureus): 0.5 µg/mL (≈ 1.14 µM); MIC90 [6]: 1 µg/mL (≈ 2.28 µM); MIC90 [7]: 2 µg/mL (≈ 4.55 µM); MIC90 [8]: 1 µg/mL (≈ 2.28 µM)
CC(=O)NC[C@H]1CN(c2ccc(-c3ccc(C4=NOCCN4C)nc3)c(F)c2)C(=O)O1 [Compound 69] | – | – | – | – | – | – | – | – | 1 µg/mL (≈ 2.34 µM) | 1 µg/mL (≈ 2.34 µM) | 2 µg/mL (≈ 4.68 µM) | 4 µg/mL (≈ 9.36 µM) | 4 µg/mL (≈ 9.36 µM) | 2 µg/mL (≈ 4.68 µM) | 2 µg/mL (≈ 4.68 µM) | 8 µg/mL (≈ 18.7 µM) | 0.5 µg/mL (≈ 1.17 µM) | 0.5 µg/mL (≈ 1.17 µM) | 1 µg/mL (≈ 2.34 µM) | 1 µg/mL (≈ 2.34 µM) | –
COC(=O)NC[C@H]1CN(c2ccc(-c3ccc(C4=NOCCN4C)nc3)c(F)c2)C(=O)O1 [Compound 70] | – | – | – | – | – | – | – | – | 2 µg/mL (≈ 4.51 µM) | 1 µg/mL (≈ 2.26 µM) | 8 µg/mL (≈ 18 µM) | 8 µg/mL (≈ 18 µM) | 8 µg/mL (≈ 18 µM) | 2 µg/mL (≈ 4.51 µM) | 4 µg/mL (≈ 9.02 µM) | 4 µg/mL (≈ 9.02 µM) | 1 µg/mL (≈ 2.26 µM) | 1 µg/mL (≈ 2.26 µM) | 2 µg/mL (≈ 4.51 µM) | 1 µg/mL (≈ 2.26 µM) | –
CN1CCON=C1c1ccc(-c2ccc(N3C[C@H](CO)OC3=O)cc2F)cn1 [Compound 71] | – | – | – | – | – | – | – | – | 4 µg/mL (≈ 10.4 µM) | 2 µg/mL (≈ 5.18 µM) | 16 µg/mL (≈ 41.4 µM) | 8 µg/mL (≈ 20.7 µM) | 16 µg/mL (≈ 41.4 µM) | 4 µg/mL (≈ 10.4 µM) | 4 µg/mL (≈ 10.4 µM) | 8 µg/mL (≈ 20.7 µM) | 2 µg/mL (≈ 5.18 µM) | 2 µg/mL (≈ 5.18 µM) | 2 µg/mL (≈ 5.18 µM) | 2 µg/mL (≈ 5.18 µM) | –
CC(=O)NC[C@H]1CN(c2ccc(N3CCOCC3)c(F)c2)C(=O)O1 [LZD, Linezolid, reference compound] | – | – | – | – | – | – | – | – | 2 µg/mL (≈ 5.93 µM) | 1 µg/mL (≈ 2.96 µM) | 32 µg/mL (≈ 94.9 µM) | 32 µg/mL (≈ 94.9 µM) | 64 µg/mL (≈ 190 µM) | 2 µg/mL (≈ 5.93 µM) | 2 µg/mL (≈ 5.93 µM) | 8 µg/mL (≈ 23.7 µM) | 1 µg/mL (≈ 2.96 µM) | 1 µg/mL (≈ 2.96 µM) | 2 µg/mL (≈ 5.93 µM) | 2 µg/mL (≈ 5.93 µM) | –

From patent publication US8846669B2, “Oxazolidinone derivative and medical composition containing same” (Legochem Biosciences, Inc., priority 2011, dated 2014)
